Where two headings read alike, the source gives them in different places. Square brackets hold non-standard residues; d marks the D form. Peptide text beside a SMILES is read from it. * marks the point of attachment. Lauroyl = CCCCCCCCCCCC(=O)*; Butyryl = CCCC(=O)*

Series [1] relates to X. fastidiosa subsp. fastidiosa IVIA 5387.2. The conditions noted are these: for log reduction of cell viability: 3 h, 50 μM.
Series [2] has the same test system. The class given is cell-based, Xylella fastidiosa.
Series [3] concerns Gram-negative bacteria. The conditions noted are these: cited from earlier work.
Series [4] deals with Gram-negative bacteria. The arrangement: key: Xf: Xylella fastidiosa; Ec: Escherichia coli; Pa: Pseudomonas aeruginosa; Ab: Acinetobacter baumannii; Kp: Klebsiella pneumoniae; Bc: Burkholderia cenocepacia; Se: Salmonella enterica subsp. enterica; Sp: Salmonella pullorum; –: low or no activity. The note with it: cited from earlier work. This is another data set of the same source.

For the compound `CC[C@H](C)[C@H](NC(=O)[C@H](C)NC(=O)[C@H](Cc1c[nH]cn1)NC(=O)[C@@H]1CCCN1C(=O)[C@@H](NC(=O)[C@H](CC(C)C)NC(=O)[C@H](CO)NC(=O)[C@H](Cc1ccccc1)NC(=O)[C@H](CC(C)C)NC(=O)[C@@H](N)Cc1ccccc1)[C@@H](C)CC)C(=O)NCC(=O)NCC(=O)N[C@@H](CC(C)C)C(=O)N[C@H](C(=O)N[C@@H](CO)C(=O)N[C@@H](C)C(=O)N[C@@H](Cc1ccccc1)C(=O)N[C@@H](CCCCN)C(N)=O)[C@@H](C)CC` [AamAP1], in series [1], the “Bactericidal activity: Reduction in viability (Log N0/N)” value is given as 1.38 ± 0.12 Log N0/N. Further, the “Effect on X. fastidiosa growth in the antibiofilm test” value in series [2] is “affected X. fastidiosa’s growth”. In addition, the Hemolysis came to 100.00 ± 1.3% with horse erythrocytes (150 µM), 100.0 ± 4.1% with horse erythrocytes (250 µM) and 100.0 ± 4.4% in the series on horse erythrocytes (375 µM).

On to `CCCC(=O)N[C@H](C(=O)N[C@@H](CC(C)C)C(=O)N1CCC[C@H]1C(=O)N[C@H](Cc1ccccc1)C(=O)N[C@@H](CCCCN)C(=O)N[C@H](Cc1ccccc1)C(=O)N1CCC[C@H]1C(=O)N[C@H](Cc1ccccc1)C(=O)N[C@H](Cc1ccccc1)C(=O)N1CCC[C@H]1C(=O)N[C@H](Cc1ccccc1)C(=O)N[C@@H](CCCNC(=N)N)C(=O)N[C@@H](CCCNC(=N)N)C(N)=O)[C@@H](C)CC` [BP526] (Butyryl-ILP[dF]K[dF]P[dF][dF]P[dF]RR-NH2), for which the “Bactericidal activity: Reduction in viability (Log N0/N)” value in series [1] (50 µM) amounted to 0.56 ± 0.03 Log N0/N. The “Biofilm formation Level (antibiofilm activity)” value (shortened to “Biofilm formation Level”) in series [2] (50 µM) was “High (key: High: high antibiofilm activity (ratio of biofilm formation from 0.01 to 0.2); Moderate: moderate activity (ratio from 0.29 to 0.47); Low: low activity (ratio from 0.72 to 0.77))”. In series [2] (50 µM), the “Biofilm formation Ratio (treatment/NTC)” value is on record as 0.17 ± 0.02. The “Planktonic cells Ratio (treatment/NTC)” value in series [2] (50 µM) came to 2.17 ± 0.02. For the same compound, the Hemolysis with horse erythrocytes (150 µM) was 8.3 ± 0.7%; in the series with horse erythrocytes (250 µM), 20.4 ± 0.7%; in the series on horse erythrocytes (375 µM), 46.8 ± 3.3%.

Take `CCCCCCCCCCCC(=O)N[C@H](C(=O)N[C@@H](CC(C)C)C(=O)N1CCC[C@H]1C(=O)N[C@H](Cc1ccccc1)C(=O)N[C@@H](CCCCN)C(=O)N[C@H](Cc1ccccc1)C(=O)N1CCC[C@H]1C(=O)N[C@H](Cc1ccccc1)C(=O)N[C@H](Cc1ccccc1)C(=O)N1CCC[C@H]1C(=O)N[C@H](Cc1ccccc1)C(=O)N[C@@H](CCCNC(=N)N)C(=O)N[C@@H](CCCNC(=N)N)C(N)=O)[C@@H](C)CC` [BP528] (Lauroyl-ILP[dF]K[dF]P[dF][dF]P[dF]RR-NH2): in series [1] (50 µM), the “Bactericidal activity: Reduction in viability (Log N0/N)” value was determined as 0.61 ± 0.12 Log N0/N. For the same compound, in series [2] (50 µM), the “Biofilm formation Level” value is reported as “High (key: High: high antibiofilm activity (ratio of biofilm formation from 0.01 to 0.2); Moderate: moderate activity (ratio from 0.29 to 0.47); Low: low activity (ratio from 0.72 to 0.77))”, the “Biofilm formation Ratio (treatment/NTC)” value amounted to 0.03 ± 0.01 and the “Planktonic cells Ratio (treatment/NTC)” value amounted to 0.99 ± 0.06. Moreover, the Hemolysis with horse erythrocytes (150 µM) stood at 92.1 ± 5.7%. Also, in the series on horse erythrocytes (250 µM), the Hemolysis is reported as 96.6 ± 3.1%. The same compound registered a Hemolysis with horse erythrocytes (375 µM) of 99.1 ± 8.0%.

Regarding `CC[C@H](C)[C@H](NC(=O)[C@H](CCCNC(=N)N)NC(=O)[C@@H](N)Cc1ccccc1)C(=O)N[C@@H](CCCNC(=N)N)C(=O)N[C@H](C(=O)N[C@@H](CCCNC(=N)N)C(=O)N[C@H](C(N)=O)C(C)C)C(C)C` [FV7] (H-FRIRVRV-NH2; N-terminus assumed), in the series on Gram-negative bacteria [3], the “Described activity: Antibiofilm” value is “Ec, Pa”. For the same compound, the “Described activity: Antibacterial” value in the series with Gram-negative bacteria [4] is listed as “Ec, Pa, Se, Sp”. Moreover, the “Bactericidal activity: Reduction in viability (Log N0/N)” value in series [1] (50 µM) is on record as 0.07 ± 0.14 Log N0/N. For the same compound, in series [2] (50 µM), the “Biofilm formation Level” value is listed as “High (key: High: high antibiofilm activity (ratio of biofilm formation from 0.01 to 0.2); Moderate: moderate activity (ratio from 0.29 to 0.47); Low: low activity (ratio from 0.72 to 0.77))”, the “Biofilm formation Ratio (treatment/NTC)” value is recorded as 0.20 ± 0.01 and the “Planktonic cells Ratio (treatment/NTC)” value is on record as 1.33 ± 0.17. In the series with horse erythrocytes (150 µM), this compound registered a Hemolysis of 3.7 ± 0.4%. In addition, the Hemolysis with horse erythrocytes (250 µM) turned out to be 4.4 ± 0.3%. In addition, in the series on horse erythrocytes (375 µM), the Hemolysis is recorded as 9.5 ± 1.4%.

Regarding `CC[C@H](C)[C@H](N)C(=O)N[C@@H](CC(C)C)C(=O)N1CCC[C@H]1C(=O)N[C@@H](Cc1c[nH]c2ccccc12)C(=O)N[C@@H](CCCCN)C(=O)N[C@@H](Cc1c[nH]c2ccccc12)C(=O)N1CCC[C@H]1C(=O)N[C@@H](Cc1c[nH]c2ccccc12)C(=O)N[C@@H](Cc1c[nH]c2ccccc12)C(=O)N1CCC[C@H]1C(=O)N[C@@H](Cc1c[nH]c2ccccc12)C(=O)N[C@@H](CCCNC(=N)N)C(=O)N[C@@H](CCCNC(=N)N)C(N)=O` [Indolicidin], the “Described activity: Antibacterial” value in the series with Gram-negative bacteria [4] is reported as “Xf”. In addition, in series [1], the “Bactericidal activity: Reduction in viability (Log N0/N)” value was found to be 2.46 ± 0.11 Log N0/N and the “log reduction of cell viability” value is on record as 2-3 log. Besides, in series [2], the “Biofilm formation Level” value was “High (key: High: high antibiofilm activity (ratio of biofilm formation from 0.01 to 0.2); Moderate: moderate activity (ratio from 0.29 to 0.47); Low: low activity (ratio from 0.72 to 0.77))”, the “Biofilm formation Ratio (treatment/NTC)” value was found to be 0.09 ± 0.01 and the “Planktonic cells Ratio (treatment/NTC)” value is given as 0.46 ± 0.07. Further, the Hemolysis in the series on horse erythrocytes (150 µM) was 95.1 ± 5.0%. For the same compound, the Hemolysis in the series on horse erythrocytes (250 µM) amounted to 100.0 ± 4.4%. Further, the Hemolysis with horse erythrocytes (375 µM) worked out at 100.0 ± 2.5%.

For `CC[C@H](C)[C@H](NC(=O)[C@H](CCCNC(=N)N)NC(=O)[C@H](CCCNC(=N)N)NC(=O)[C@H](Cc1c[nH]c2ccccc12)NC(=O)[C@H](Cc1ccccc1)NC(=O)[C@@H](N)C(C)C)C(=O)N[C@@H](CCCNC(=N)N)C(=O)N[C@H](C(=O)N[C@@H](Cc1c[nH]c2ccccc12)C(=O)N[C@H](C(=O)N[C@H](C(=O)N[C@@H](CCCNC(=N)N)C(N)=O)[C@@H](C)CC)C(C)C)C(C)C` [LJK2] (H-VFWRRIRVWVIR-NH2), the “Bactericidal activity: Reduction in viability (Log N0/N)” value in series [1] turned out to be 0.80 ± 0.10 Log N0/N. Moreover, the “Effect on X. fastidiosa growth in the antibiofilm test” value in series [2] was “affected X. fastidiosa’s growth”. Besides, the results for the Hemolysis with horse erythrocytes (150 µM), in the series on horse erythrocytes (250 µM) and in the series on horse erythrocytes (375 µM) were 28.4 ± 1.9%, 43.9 ± 3.7% and 72.4 ± 8.9%, respectively.

As to `CC[C@H](C)[C@H](NC(=O)[C@H](CCCNC(=N)N)NC(=O)[C@@H](NC(=O)[C@H](Cc1c[nH]c2ccccc12)NC(=O)[C@@H](NC(=O)[C@@H](NC(=O)[C@@H](N)CCCNC(=N)N)[C@@H](C)CC)C(C)C)C(C)C)C(=O)N[C@@H](CCCNC(=N)N)C(=O)N[C@@H](CCCNC(=N)N)C(=O)N[C@@H](Cc1c[nH]c2ccccc12)C(=O)N[C@@H](Cc1ccccc1)C(=O)N[C@H](C(N)=O)C(C)C` [RJK2] (H-RIVWVRIRRWFV-NH2), the “Bactericidal activity: Reduction in viability (Log N0/N)” value in series [1] (50 µM) was 0.70 ± 0.08 Log N0/N. In addition, in series [2] (50 µM), the “Biofilm formation Level” value is “High (key: High: high antibiofilm activity (ratio of biofilm formation from 0.01 to 0.2); Moderate: moderate activity (ratio from 0.29 to 0.47); Low: low activity (ratio from 0.72 to 0.77))”, the “Biofilm formation Ratio (treatment/NTC)” value is 0.02 ± 0.00 and the “Planktonic cells Ratio (treatment/NTC)” value stood at 1.54 ± 0.07. Besides, the Hemolysis in the series with horse erythrocytes (150 µM) was 19.2 ± 3.1%. Also, the Hemolysis in the series with horse erythrocytes (250 µM) is on record as 29.6 ± 2.2%. Further, the Hemolysis with horse erythrocytes (375 µM) was 50.2 ± 5.4%.

For `CC[C@H](C)[C@H](NC(=O)[C@H](CCCNC(=N)N)NC(=O)[C@H](CCCNC(=N)N)NC(=O)[C@H](CC(C)C)NC(=O)[C@H](Cc1c[nH]c2ccccc12)NC(=O)[C@H](C)NC(=O)[C@H](CCCCN)NC(=O)[C@@H](NC(=O)[C@H](CCCNC(=N)N)NC(=O)[C@H](CCCNC(=N)N)NC(=O)[C@H](CC(C)C)NC(=O)[C@@H](N)Cc1c[nH]c2ccccc12)[C@@H](C)CC)C(=O)N[C@@H](CCCCN)C(=O)N[C@@H](C)C(N)=O` [RR4-NH2], in series [1], the “Bactericidal activity: Reduction in viability (Log N0/N)” value came out at 2.08 ± 0.09 Log N0/N and the “log reduction of cell viability” value is on record as 2-3 log. In series [2], the “Biofilm formation Level” value is “High (key: High: high antibiofilm activity (ratio of biofilm formation from 0.01 to 0.2); Moderate: moderate activity (ratio from 0.29 to 0.47); Low: low activity (ratio from 0.72 to 0.77))”, the “Biofilm formation Ratio (treatment/NTC)” value is recorded as 0.20 ± 0.01 and the “Planktonic cells Ratio (treatment/NTC)” value was determined as 1.84 ± 0.05.

HOC11H22CO-ILPFKFPFFPFRR-NH2 [BP529]: the “Bactericidal activity: Reduction in viability (Log N0/N)” value in series [1] (50 µM) was 0.62 ± 0.09 Log N0/N. Moreover, the “Biofilm formation Level” value in series [2] (50 µM) is given as “High (key: High: high antibiofilm activity (ratio of biofilm formation from 0.01 to 0.2); Moderate: moderate activity (ratio from 0.29 to 0.47); Low: low activity (ratio from 0.72 to 0.77))”. The “Biofilm formation Ratio (treatment/NTC)” value in series [2] (50 µM) was found to be 0.12 ± 0.03. In series [2] (50 µM), the “Planktonic cells Ratio (treatment/NTC)” value is recorded as 2.29 ± 0.03. The Hemolysis with horse erythrocytes (150 µM) is reported as 7.2 ± 0.3%; in the series on horse erythrocytes (250 µM), 12.5 ± 0.6%; with horse erythrocytes (375 µM) it was 39.0 ± 1.1%.

On to Magainin 2, for which the “Described activity: Antibacterial” value in the series with Gram-negative bacteria [4] is “Xf”. Besides, the entries for the “Bactericidal activity: Reduction in viability (Log N0/N)” value in series [1] (3.1 µM), in series [1] (12.5 μM) and in series [1] (50 µM) were 0.49 ± 0.10 Log N0/N, 2.07 ± 0.12 Log N0/N and 3.29 ± 0.11 Log N0/N, respectively. For the same compound, the results for the log reduction entry in series [1] (3.1 µM) and in series [1] (12.5 μM) were “poorly active” and 2 log, respectively. Moreover, the “Biofilm formation Level” value in series [2] (12.5 μM) is listed as “Moderate (key: High: high antibiofilm activity (ratio of biofilm formation from 0.01 to 0.2); Moderate: moderate activity (ratio from 0.29 to 0.47); Low: low activity (ratio from 0.72 to 0.77))”. Moreover, the “Biofilm formation Ratio (treatment/NTC)” value in series [2] (28°C, 5 days) stood at 0.47 ± 0.02. Besides, in series [2] (28°C, 5 days), the “Planktonic cells Ratio (treatment/NTC)” value is recorded as 1.59 ± 0.13. Moreover, the results for the Hemolysis with horse erythrocytes (150 µM), in the series with horse erythrocytes (250 µM) and in the series with horse erythrocytes (375 µM) were 35.2 ± 1.1%, 54.5 ± 3.7% and 71.1 ± 6.0%, respectively.

The values above are taken from publication PMC8606745 (Frontiers in Microbiology, 2021).
